From US9068080B2, “Merocyanine derivatives” (BASF SE, priority 2006, dated 2015) come the findings set out here.

A short description of this data set: UV absorption spectrum (λmax, ε) of the merocyanine UV filters. It counts as physicochemical.

SMILES strings stand for the structures.

Take `CCOC(=O)/C(C#N)=C\C=C\N(C)CCC[Si](C)(O[Si](C)(C)C)O[Si](C)(C)C` [MC 13]: the “UV λmax” value (in CH3CN/H2O) came out at 381 nm. In addition, where the note is “in EtOH”, the “UV λmax” value was 380 nm and the “ε (molar extinction at λmax)” value amounted to 69116.

Take `CCOC(=O)/C(C#N)=C1\C=C(NCCC[Si](C)(O[Si](C)(C)C)O[Si](C)(C)C)CC(C)(C)C1` [MC 08]: where the note is “in EtOH”, the “UV λmax” value was 388 nm and the “ε (molar extinction at λmax)” value amounted to 50383.

On to `CN(/C=C/C=C(C#N)C#N)CCC[Si]1(C)O[Si](C)(CCCN(C)/C=C/C=C(C#N)C#N)O[Si](C)(CCCN(C)/C=C/C=C(C#N)C#N)O[Si](C)(CCCN(C)/C=C/C=C(C#N)C#N)O1` (stereo not shown) [MC 15], for which, for the setting “in CH3CN/H2O”, the “UV λmax” value is reported as 378 nm.

For `CCOC(=O)/C(C#N)=C1/C=C(NCCC[Si]2(C)O[Si](C)(CCCNC3=C/C(=C(\C#N)C(=O)OCC)CC(C)(C)C3)O[Si](C)(CCCNC3=C/C(=C(\C#N)C(=O)OCC)CC(C)(C)C3)O[Si](C)(CCCNC3=C/C(=C(\C#N)C(=O)OCC)CC(C)(C)C3)O2)CC(C)(C)C1` (stereo not shown) [MC 11], under “in EtOH”, the “UV λmax” value is on record as 388 nm and the “ε (molar extinction at λmax)” value amounted to 181817.

Consider `CN(/C=C/C=C(C#N)C#N)CCC[Si](C)(O[Si](C)(C)C)O[Si](C)(C)C` [MC 14], for which the “UV λmax” value (in CH3CN/H2O) is 383 nm.

Consider `CCOC(=O)/C(C#N)=C\C=C\N(C)CCC[Si]1(C)O[Si](C)(CCCN(C)/C=C/C=C(/C#N)C(=O)OCC)O[Si](C)(CCCN(C)/C=C/C=C(/C#N)C(=O)OCC)O[Si](C)(CCCN(C)/C=C/C=C(/C#N)C(=O)OCC)O1` (stereo not shown) [MC 12], for which the “UV λmax” value (in CH3CN/H2O) turned out to be 381 nm.

`CC1(C)CC(NCCC[Si](C)(O[Si](C)(C)C)O[Si](C)(C)C)=CC(=C(C#N)C#N)C1` [MC 07]: the “UV λmax” value (in CH3CN/H2O) is reported as 382 nm. Where the note is “in EtOH”, the “UV λmax” value turned out to be 381 nm and the “ε (molar extinction at λmax)” value is listed as 52829.
